# Legend:
# AR and AR-V7 = experiment: AR and AR variant expression (immunoblotting, qRT-PCR); format: cell-based, human
# Protocol: Total RNA was isolated from cells in 6-well or 10-cm plates or from xenograft tumors, and the cDNA was prepared, amplified and measured in the presence of SYBR as previously^49. Briefly, the fluorescent values were collected and a melting curve analysis was performed. Fold difference was calculated as described previously^49. The experiments were performed at least three times with data presented as mean values±s.d. Cell lysates were analyzed by immunoblotting with antibodies specifically recognizing RORγ, AR, AR-V7 and the indicated proteins. The PCR primers and all the antibodies used in this study are described in the Tables 3 and 4.
# [1] = tested on: C4-2B, VCaP and 22Rv1 xenograft tumors; experiment: Xenograft tumor growth, three AR-positive tumor models; format: in vivo, mice; settings: 5 mg/kg, i.p., five times per week; including ENZ-resistant 22Rv1
# Protocol: (§1) Four-week-old male SCID C.B17 mice (for C4-2B and VCaP) or BALB/c nu/nu athymic mice (for 22Rv11 and PC-3) were purchased from Harlan Inc. For establishing tumors, 2×10^6 cells were suspended in total of 100 μL PBS/Matrigel (1:1) and implanted subcutaneously into the dorsal flank on both sides of the mice. Animal group size of six or more was estimated to have a high statistic power, based on power calculation (http://www.biomath.info/power/) and previous studies involving the same xenograft models^34,68. When the tumor volume was approximately 80 mm^3, the mice were randomized and then treated intraperitoneally (i.p.) with 100 μl of either vehicle or RORγ antagonists SR2211, XY011/8k (in a formulation of 15% Cremophor EL, Calbiochem, 82.5% PBS, and 2.5% DMSO) for five times per week. Tumor growth was monitored by calipers with volume calculated using the equation: (π/6 (length×width2)). Body weight during the course of the study was also monitored. At the end of the studies mice were killed and tumors were dissected and weighed. Additionally, prostate, seminal vesicle, testis, kidney, heart, lung, liver, epididymal fat pad and spleen were harvested and weighed. To assess the effect of combining RORγ antagonists and ENZ on the growth of castrated-resistant VCaP xenografts (CRPC-VCaP), first, SCID C.B17 mice were injected with VCaP cells as above to establish the tumors. […]
# CRPC-VCaP xenografts = experiment: Castration-resistant VCaP (CRPC-VCaP) xenograft tumor growth; format: in vivo; settings: castrated mice, SR2211 alone, 5 mg/kg i.p.
# Protocol: as §1
# [2] = tested on: OVCAR420, T24, ECC1, HepG2, Hep3B, T98G, SUDHL4, SUDHL6, HCT116 and docetaxel-resistant C4-2B cells; experiment: CellTiter-GLO viability, cells of other cancer types; format: cell-based, human; settings: ovarian OVCAR420, bladder T24, endometrial ECC1, liver HepG2 and Hep3B, glioblastoma T98G, DLBCL SUDHL4 and SUDHL6, colon HCT116, docetaxel-resistant C4-2B; 4 days
# Protocol: For cell viability, cells were seeded in 96-well plates at 1500-2500 cells per well (optimum density for growth) in a total volume of 100 μl media. Serially diluted compounds in […] of media were added to the cells 12 hours later. After 4 days of incubation, Cell-Titer GLO reagents (Promega) were added and luminescence was measured on GLOMAX microplate luminometer (Promega), according to the manufacturer's instructions. All experimental points were set up as sextuplicate as biological replication and the entire experiments were repeated three times. The data are presented as percentage of viable cells with vehicle treated cells set as 100. The estimated in vitro IC50 values were calculated using GraphPad Prism 6 software.
# Using a CellTiter-GLO assay, the viability of cells of different cancer types was measured after treatment with different concentrations of RORγ small molecule inhibitors for 4 days.
compound,measurement,setting,value
"OC(c1ccc(-c2ccc(CN3CCN(Cc4ccncc4)CC3)cc2)c(F)c1)(C(F)(F)F)C(F)(F)F [SR2211, 2-Fluoro-4′-[[4-(4-pyridinylmethyl)-1-piperazinyl]methyl]-a,a-bis (trifluoromethyl)-[1,1′-biphenyl]-4-methanol]",expression of AR and AR-V7,"AR and AR-V7; C4-2B and VCaP cells, 72 h",potently inhibited the expression of AR and AR-V7 in a dose-dependent manner
same,AR expression,"AR and AR-V7; C4-2B cells, 5 μM, 24 hours",significant but incomplete suppression of AR expression
same,AR (full-length and spliced variants such as ARV7) mRNA and protein expression,"AR and AR-V7; qRT-PCR and Western blotting, PCa cells",strongly inhibited the expression of AR
same,tumor growth,[1],effectively stopped the tumor growth
same,CRPC tumor growth,CRPC-VCaP xenografts,very potent in inhibition of the CRPC tumor growth
same,growth and survival of cancer cells of other types,[2],significant inhibition of the growth and survival

# Source: patent US10959984B2, “Methods for treating cancer with RORγ inhibitors” (THE REGENTS OF THE UNIVERSITY OF CALIFORNIA, priority 2015, dated 2021)
